This is an account of results in patent US12281149B2, “Modulators of G-protein coupled receptors” (priority 2021, dated 2025).

Assay type in all cases: cell-based
The target in assay [1] is T1, GLP-1 receptor (Homo sapiens, UniProt P43220). Description: HitHunter cAMP assay, GLP-1 receptor. As to conditions: for pEC50: CHO cells stably expressing human GLP-1 receptor, cAMP accumulation, 30 min, read-out: EC50 GLP-1R; for Emax: CHO cells, cAMP, normalized to maximum signal from GLP-1 (high) and DMSO (low), read-out: Emax GLP-1R. For orientation: cAMP levels reflect the balance of adenylyl cyclase and phosphodiesterase activity.
T1 sequence (P43220 24-463): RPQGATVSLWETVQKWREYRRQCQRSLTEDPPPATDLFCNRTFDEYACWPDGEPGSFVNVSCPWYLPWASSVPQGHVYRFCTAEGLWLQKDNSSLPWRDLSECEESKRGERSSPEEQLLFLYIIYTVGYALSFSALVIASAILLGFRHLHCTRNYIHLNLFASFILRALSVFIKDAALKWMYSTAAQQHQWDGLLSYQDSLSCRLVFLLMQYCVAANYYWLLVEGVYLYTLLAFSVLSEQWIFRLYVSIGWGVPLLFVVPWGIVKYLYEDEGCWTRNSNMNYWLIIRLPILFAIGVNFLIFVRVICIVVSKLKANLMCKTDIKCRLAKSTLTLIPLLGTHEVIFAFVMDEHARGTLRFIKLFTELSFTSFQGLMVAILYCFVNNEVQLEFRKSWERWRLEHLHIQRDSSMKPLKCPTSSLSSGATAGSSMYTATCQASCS

Assay [2] concerns the target T2, GIP receptor (Homo sapiens, UniProt P48546).
T2 sequence (P48546 22-466): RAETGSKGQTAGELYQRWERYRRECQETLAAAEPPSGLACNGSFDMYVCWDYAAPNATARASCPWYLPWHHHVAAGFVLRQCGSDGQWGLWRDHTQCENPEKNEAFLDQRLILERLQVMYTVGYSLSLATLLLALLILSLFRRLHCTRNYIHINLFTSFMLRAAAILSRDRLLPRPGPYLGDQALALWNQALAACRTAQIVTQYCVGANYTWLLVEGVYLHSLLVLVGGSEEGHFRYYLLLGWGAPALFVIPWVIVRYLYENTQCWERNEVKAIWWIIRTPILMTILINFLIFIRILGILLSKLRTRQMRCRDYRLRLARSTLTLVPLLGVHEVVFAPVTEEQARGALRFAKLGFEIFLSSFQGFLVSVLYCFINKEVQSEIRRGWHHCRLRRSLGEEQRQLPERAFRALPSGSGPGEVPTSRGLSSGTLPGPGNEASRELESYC
Description: PathHunter β-arrestin assay, GIP receptor. More on the design: host or cells: PathHunter CHO-K1 GIPR β-Arrestin Cell Line. The settings on record: β-arrestin-2 recruitment, PathHunter CHO-K1 GIPR β-Arrestin Cell Line, 90 min at 37° C.; normalized to GIP; read-out: GIPR β Arrestin EC50.

Assay [3] concerns the target T1, GLP-1 receptor. Kind of assay: PathHunter β-arrestin assay, GLP-1 receptor. Also noted: host or cells: PathHunter CHO-K1 GLP1R β-Arrestin Cell Line. As to conditions: β-arrestin-2 recruitment, PathHunter CHO-K1 GLP1R β-Arrestin Cell Line, 90 min at 37° C.; normalized to GLP-1; read-out: GLP-1R β Arrestin EC50. Background: Activated receptors often draw arrestin, which recruitment assays turn into a signal.

For assay [4], the target named is T2, GIP receptor. Kind of assay: HitHunter cAMP assay, GIP receptor. The settings on record: for pEC50: CHO cells stably expressing GIP receptor, cAMP accumulation, 30 min, read-out: EC50 GIP-1R; for Emax: CHO cells, cAMP, normalized to maximum signal from GIP (high) and DMSO (low), read-out: Emax GIP-1R.

pEC50: −log10 of the molar value. *1 amine or outer side, *2 acyl side, *3 side chain or, on linkers, in order; H or OH if unused. Where a SMILES comes first, the peptide text is derived from it. Side-chain parts run from the residue outwards. [ ]: non-standard residue; d: D form. The star is where a group is joined. Isobutyryl(2-(3-CN-5-F-Ph)) = CC(C)(C(=O)*)c1cc(F)cc(C#N)c1; C20 diacid = O=C(O)CCCCCCCCCCCCCCCCCCC(=O)*; γGlu = O=C(O)[C@H](CCC(=O)[*:2])N[*:1]; NMeβAla = CN(CCC(=O)[*:2])[*:1]; X44 = COc1ccc(C(C)(C)C(=O)*)cc1; X11 = C[C@@H](C(=O)*)c1ccccc1; X78 = CC(C)(C(=O)*)C1CCCCC1; AEEA = NCCOCCOCC(=O)O; Aib = CC(C)(N)C(=O)O; GABA = NCCCC(=O)O; βAla = NCCC(=O)O

By pEC50 is commonly meant the EC50 on a negative log10 scale, so that one unit is a factor of ten. As usually defined, the Emax is the size of the effect at its maximum, as opposed to the concentration needed. Turning to `CC[C@H](C)[C@H](NC(=O)[C@H](CC(C)C)NC(=O)[C@H](Cc1c[nH]c2ccccc12)NC(=O)[C@H](CCC(N)=O)NC(=O)[C@@H](NC(=O)[C@H](Cc1ccccc1)NC(=O)[C@H](C)NC(=O)[C@H](CCCCNC(=O)COCCOCCNC(=O)COCCOCCNC(=O)CC[C@H](NC(=O)CCCCCCCCCCCCCCCCCCC(=O)O)C(=O)O)NC(=O)[C@H](CCC(N)=O)NC(=O)[C@H](C)NC(=O)[C@@H](NC(=O)[C@H](CCCCN)NC(=O)[C@H](CC(=O)O)NC(=O)[C@H](CC(C)C)NC(=O)C(C)(C)NC(=O)[C@@H](NC(=O)[C@H](CO)NC(=O)[C@H](Cc1ccc(O)cc1)NC(=O)[C@H](CC(=O)O)NC(=O)[C@H](CO)NC(=O)[C@@H](NC(=O)[C@H](Cc1ccccc1)NC(=O)[C@@H](NC(=O)CNC(=O)[C@H](CCC(=O)O)NC(=O)CCCNC(=O)C(C)(C)c1cc(F)cc(C#N)c1)[C@@H](C)O)[C@@H](C)O)[C@@H](C)CC)[C@@H](C)CC)C(C)C)C(=O)N[C@@H](C)C(=O)NCC(=O)NCC(=O)N1CCC[C@H]1C(=O)N[C@@H](CO)C(=O)N[C@@H](CO)C(=O)NCC(=O)N[C@@H](C)C(=O)N1CCC[C@H]1C(=O)N1CCC[C@H]1C(=O)N1CCC[C@H]1C(=O)N[C@@H](CO)C(N)=O` [Compound 200] ({Isobutyryl(2-(3-CN-5-F-Ph))-GABA}-EGTFTSDYSI[Aib]LDKIAQK([AEEA-AEEA-γGlu-C20 diacid])AFVQWLIAGGPSSGAPPPS-NH2), the pEC50 in assay [1] is 9.00 to 10.00; in assay [2], less than 6.00; in assay [3] it was less than 6.00; in assay [4] it was 7.00 to 8.00. For the same molecule, the Emax in assay [1] stood at 104%; in assay [4] it was 102%.
In the case of `CC[C@H](C)[C@H](NC(=O)[C@H](CC(C)C)NC(=O)[C@H](Cc1c[nH]c2ccccc12)NC(=O)[C@H](CCC(N)=O)NC(=O)[C@@H](NC(=O)[C@H](Cc1ccccc1)NC(=O)[C@H](C)NC(=O)[C@H](CCCCNC(=O)COCCOCCNC(=O)COCCOCCNC(=O)CC[C@H](NC(=O)CCCCCCCCCCCCCCCCCCC(=O)O)C(=O)O)NC(=O)[C@H](CCC(N)=O)NC(=O)[C@H](C)NC(=O)[C@@H](NC(=O)[C@H](CCCCN)NC(=O)[C@H](CC(=O)O)NC(=O)[C@H](CC(C)C)NC(=O)C(C)(C)NC(=O)[C@@H](NC(=O)[C@H](CO)NC(=O)[C@H](Cc1ccc(O)cc1)NC(=O)[C@H](CC(=O)O)NC(=O)[C@H](CO)NC(=O)[C@@H](NC(=O)[C@H](Cc1ccccc1)NC(=O)[C@@H](NC(=O)CNC(=O)[C@H](CCC(=O)O)NC(=O)CCN(C)C(=O)C(C)(C)c1cc(F)cc(C#N)c1)[C@@H](C)O)[C@@H](C)O)[C@@H](C)CC)[C@@H](C)CC)C(C)C)C(=O)N[C@@H](C)C(=O)NCC(=O)NCC(=O)N1CCC[C@H]1C(=O)N[C@@H](CO)C(=O)N[C@@H](CO)C(=O)NCC(=O)N[C@@H](C)C(=O)N1CCC[C@H]1C(=O)N1CCC[C@H]1C(=O)N1CCC[C@H]1C(=O)N[C@@H](CO)C(N)=O` [Compound 201] ({Isobutyryl(2-(3-CN-5-F-Ph))}-[NMeβAla]EGTFTSDYSI[Aib]LDKIAQK([AEEA-AEEA-γGlu-C20 diacid])AFVQWLIAGGPSSGAPPPS-NH2), the pEC50 in assay [1] is 7.00 to 8.00; in assay [2], less than 6.00; in assay [3], less than 6.00; in assay [4], 6.00 to 7.00. The Emax in assay [1] amounted to 108%; in assay [4], 107%.
For `CC[C@H](C)[C@H](NC(=O)[C@H](CC(C)C)NC(=O)[C@H](Cc1c[nH]c2ccccc12)NC(=O)[C@H](CCC(N)=O)NC(=O)[C@@H](NC(=O)[C@H](Cc1ccccc1)NC(=O)[C@H](C)NC(=O)[C@H](CCCCNC(=O)COCCOCCNC(=O)COCCOCCNC(=O)CC[C@H](NC(=O)CCCCCCCCCCCCCCCCCCC(=O)O)C(=O)O)NC(=O)[C@H](CCC(N)=O)NC(=O)[C@H](C)NC(=O)[C@@H](NC(=O)[C@H](CCCCN)NC(=O)[C@H](CC(=O)O)NC(=O)[C@H](CC(C)C)NC(=O)C(C)(C)NC(=O)[C@@H](NC(=O)[C@H](CO)NC(=O)[C@H](Cc1ccc(O)cc1)NC(=O)[C@H](CC(=O)O)NC(=O)[C@H](CO)NC(=O)[C@@H](NC(=O)[C@H](Cc1ccccc1)NC(=O)[C@@H](NC(=O)CNC(=O)[C@H](CCC(=O)O)NC(=O)CCNC(=O)C(C)(C)c1ccc(OC)cc1)[C@@H](C)O)[C@@H](C)O)[C@@H](C)CC)[C@@H](C)CC)C(C)C)C(=O)N[C@@H](C)C(=O)NCC(=O)NCC(=O)N1CCC[C@H]1C(=O)N[C@@H](CO)C(=O)N[C@@H](CO)C(=O)NCC(=O)N[C@@H](C)C(=O)N1CCC[C@H]1C(=O)N1CCC[C@H]1C(=O)N1CCC[C@H]1C(=O)N[C@@H](CO)C(N)=O` [Compound 203] ({X44-βAla}-EGTFTSDYSI[Aib]LDKIAQK([AEEA-AEEA-γGlu-C20 diacid])AFVQWLIAGGPSSGAPPPS-NH2), the pEC50 in assay [1] was 9.00 to 10.00; in assay [2], greater than 6.00; in assay [3], less than 6.00; in assay [4], 8.00 to 9.00. For the same molecule, the maximal effect (Emax) in assay [1] and in assay [4] was 103% in each case.
Take `CC[C@H](C)[C@H](NC(=O)[C@H](CC(C)C)NC(=O)[C@H](Cc1c[nH]c2ccccc12)NC(=O)[C@H](CCC(N)=O)NC(=O)[C@@H](NC(=O)[C@H](Cc1ccccc1)NC(=O)[C@H](C)NC(=O)[C@H](CCCCNC(=O)COCCOCCNC(=O)COCCOCCNC(=O)CC[C@H](NC(=O)CCCCCCCCCCCCCCCCCCC(=O)O)C(=O)O)NC(=O)[C@H](CCC(N)=O)NC(=O)[C@H](C)NC(=O)[C@@H](NC(=O)[C@H](CCCCN)NC(=O)[C@H](CC(=O)O)NC(=O)[C@H](CC(C)C)NC(=O)C(C)(C)NC(=O)[C@@H](NC(=O)[C@H](CO)NC(=O)[C@H](Cc1ccc(O)cc1)NC(=O)[C@H](CC(=O)O)NC(=O)[C@H](CO)NC(=O)[C@@H](NC(=O)[C@H](Cc1ccccc1)NC(=O)[C@@H](NC(=O)CNC(=O)[C@H](CCC(=O)O)NC(=O)CCNC(=O)[C@H](C)c1ccccc1)[C@@H](C)O)[C@@H](C)O)[C@@H](C)CC)[C@@H](C)CC)C(C)C)C(=O)N[C@@H](C)C(=O)NCC(=O)NCC(=O)N1CCC[C@H]1C(=O)N[C@@H](CO)C(=O)N[C@@H](CO)C(=O)NCC(=O)N[C@@H](C)C(=O)N1CCC[C@H]1C(=O)N1CCC[C@H]1C(=O)N1CCC[C@H]1C(=O)N[C@@H](CO)C(N)=O` [Compound 204] ({X11-βAla}-EGTFTSDYSI[Aib]LDKIAQK([AEEA-AEEA-γGlu-C20 diacid])AFVQWLIAGGPSSGAPPPS-NH2): the pEC50 in assay [1] was 8.00 to 9.00; in assay [2], less than 6.00; in assay [3], less than 6.00; in assay [4], 7.00 to 8.00. Further, the Emax in assay [1] amounted to 106%; in assay [4] it was 105%.
As to `CC[C@H](C)[C@H](NC(=O)[C@H](CC(C)C)NC(=O)[C@H](Cc1c[nH]c2ccccc12)NC(=O)[C@H](CCC(N)=O)NC(=O)[C@@H](NC(=O)[C@H](Cc1ccccc1)NC(=O)[C@H](C)NC(=O)[C@H](CCCCNC(=O)COCCOCCNC(=O)COCCOCCNC(=O)CC[C@H](NC(=O)CCCCCCCCCCCCCCCCCCC(=O)O)C(=O)O)NC(=O)[C@H](CCC(N)=O)NC(=O)[C@H](C)NC(=O)[C@@H](NC(=O)[C@H](CCCCN)NC(=O)[C@H](CC(=O)O)NC(=O)[C@H](CC(C)C)NC(=O)C(C)(C)NC(=O)[C@@H](NC(=O)[C@H](CO)NC(=O)[C@H](Cc1ccc(O)cc1)NC(=O)[C@H](CC(=O)O)NC(=O)[C@H](CO)NC(=O)[C@@H](NC(=O)[C@H](Cc1ccccc1)NC(=O)[C@@H](NC(=O)CNC(=O)[C@H](CCC(=O)O)NC(=O)CCNC(=O)C(C)(C)C1CCCCC1)[C@@H](C)O)[C@@H](C)O)[C@@H](C)CC)[C@@H](C)CC)C(C)C)C(=O)N[C@@H](C)C(=O)NCC(=O)NCC(=O)N1CCC[C@H]1C(=O)N[C@@H](CO)C(=O)N[C@@H](CO)C(=O)NCC(=O)N[C@@H](C)C(=O)N1CCC[C@H]1C(=O)N1CCC[C@H]1C(=O)N1CCC[C@H]1C(=O)N[C@@H](CO)C(N)=O` [Compound 205] ({X78-βAla}-EGTFTSDYSI[Aib]LDKIAQK([AEEA-AEEA-γGlu-C20 diacid])AFVQWLIAGGPSSGAPPPS-NH2), the pEC50 is 8.00 to 9.00 in assay [1], less than 6.00 in assay [2], less than 6.00 in assay [3] and 7.00 to 8.00 in assay [4]. The Emax in assay [1] and in assay [4] was 99% each time.
